These results are taken from PubChem BioAssay (NCI).

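All cell lines were grown in 96-well plates and treated with compound for 48 hours. At the GI50, growth is halved. Definition used: TGI = concentration required for complete inhibition of growth.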

Test systems include HCT-15 colon; HOP-62 NSCLC; K-562 leukemia; MDA-MB-231 breast; OVCAR-3 ovarian; OVCAR-5 ovarian; RXF 393 renal; SK-MEL-5 melanoma; U251 CNS; UACC-257 melanoma.
What all share (experiment): inhibition of tumour cell growth, NCI panel, 48 h

For the molecule `CN1CCN(CCNc2ccc(CO)c3sc4ccccc4c(=O)c23)CC1`, the TGI is 18 µM in the test with HCT-15 colon; 18.6 µM with HOP-62 NSCLC; 14.7 µM in the test on K-562 leukemia; 15.2 µM with MDA-MB-231 breast; 18.3 µM in the test with OVCAR-3 ovarian; 21.2 µM in the test on OVCAR-5 ovarian. Further, the TGI in the test with RXF 393 renal was 1.82 µM; with SK-MEL-5 melanoma, 9.88 µM; in the test with U251 CNS it was 14.6 µM; in the test with UACC-257 melanoma it was 9.84 µM. In addition, the results for the GI50 with MDA-MB-231 breast and in the test with RXF 393 renal were 3.99 µM and 0.0726 µM, respectively.

As for `COc1cc(C2=NN(c3ccc(S(N)(=O)=O)cc3)C(c3ccc(Cl)cc3)C2)cc(OC)c1OC` (stereo not drawn), the GI50 is 3.77 µM in the test on HCT-15 colon; 5.8 µM in the test with HOP-62 NSCLC; 5.67 µM with K-562 leukemia; 3.95 µM with MDA-MB-231 breast; 4.68 µM in the test with OVCAR-3 ovarian; 3.69 µM in the test on OVCAR-5 ovarian. Further, the GI50 in the test with RXF 393 renal is 3.05 µM; in the test on SK-MEL-5 melanoma, 3.35 µM; in the test with U251 CNS, 3.84 µM; with UACC-257 melanoma, 9.5 µM. The TGI with HCT-15 colon, with HOP-62 NSCLC, in the test with K-562 leukemia, in the test with MDA-MB-231 breast, in the test with OVCAR-3 ovarian and in the test with OVCAR-5 ovarian was over 100 µM each time. Besides, the TGI is over 100 µM in the test on RXF 393 renal, 18 µM in the test on SK-MEL-5 melanoma, over 100 µM in the test on U251 CNS and over 100 µM in the test on UACC-257 melanoma.

In the case of `O=C(CNc1ncco1)Nc1ccc(S(=O)(=O)c2ccc(NC(=O)CNc3ncco3)cc2)cc1`, the GI50 is 1.47 µM in the test with HCT-15 colon; 2.07 µM in the test with HOP-62 NSCLC; 2 µM with K-562 leukemia; 2.66 µM in the test on MDA-MB-231 breast; 1.63 µM in the test with OVCAR-3 ovarian; 2.03 µM in the test on OVCAR-5 ovarian. Also, the GI50 in the test on RXF 393 renal is 1.42 µM; with SK-MEL-5 melanoma it was 1.52 µM; with U251 CNS, 1.17 µM; in the test with UACC-257 melanoma, 1.85 µM. Besides, the TGI amounted to 5.44 µM in the test on HCT-15 colon; 4.09 µM with HOP-62 NSCLC; 5.95 µM with K-562 leukemia; 7.38 µM in the test on MDA-MB-231 breast; 3.71 µM with OVCAR-3 ovarian; 4.13 µM in the test with OVCAR-5 ovarian. The TGI is 2.86 µM in the test with RXF 393 renal, 2.88 µM with SK-MEL-5 melanoma, 2.48 µM in the test with U251 CNS and 4.86 µM in the test with UACC-257 melanoma.

For `CCCCCCNc1nc(N2CCOCC2)c2[nH]c(NCCCCCC)nc2n1`, the GI50 with HCT-15 colon is 1.64 µM; in the test with HOP-62 NSCLC it was 1.67 µM; in the test with MDA-MB-231 breast, 1.81 µM; in the test with OVCAR-3 ovarian it was 1.76 µM; in the test on OVCAR-5 ovarian, 1.61 µM; in the test on RXF 393 renal, 1.36 µM. The figures for the GI50 in the test with SK-MEL-5 melanoma, with U251 CNS and in the test on UACC-257 melanoma were 1.42 µM, 1.61 µM and 1.62 µM, respectively. In addition, the TGI in the test on HCT-15 colon worked out at 3.22 µM; in the test with HOP-62 NSCLC, 3.27 µM; in the test with MDA-MB-231 breast it was 3.3 µM; with OVCAR-3 ovarian, 3.14 µM; in the test on OVCAR-5 ovarian, 2.96 µM; in the test on RXF 393 renal it was 2.67 µM. The TGI with SK-MEL-5 melanoma turned out to be 2.72 µM; with U251 CNS it was 3.18 µM; in the test on UACC-257 melanoma, 3.16 µM.

Turning to `CO[C@@]12C[C@H]3[C@@H]([C@@H](O)[C@@H](OC(=O)/C=C/c4ccccc4)[C@@]4(O)C(C)(C)CCC[C@]34C)[C@@H](C)C1=CC(=O)O2`, the GI50 in the test on HCT-15 colon is 4.51 µM; in the test on K-562 leukemia, 12.5 µM; with MDA-MB-231 breast, 0.585 µM; in the test on OVCAR-3 ovarian it was 2.01 µM; in the test on OVCAR-5 ovarian, 17.1 µM; with RXF 393 renal, 1.33 µM. Also, the GI50 is 4.55 µM in the test on SK-MEL-5 melanoma, 3.29 µM in the test with U251 CNS and 14.4 µM with UACC-257 melanoma. The TGI with HCT-15 colon is 19.2 µM; in the test on K-562 leukemia, over 100 µM; with MDA-MB-231 breast it was 4.6 µM; in the test on OVCAR-3 ovarian, 11.6 µM; in the test on OVCAR-5 ovarian, 48 µM; with RXF 393 renal, 7.93 µM. Further, the TGI in the test on SK-MEL-5 melanoma turned out to be 18.3 µM; in the test with U251 CNS, 13.7 µM; in the test on UACC-257 melanoma it was 32.1 µM.

As to `COc1ccc(C(=O)COc2cccc(/C=C3\CSc4ccc(Cl)cc4C3=O)c2)cc1`, the GI50 was 1.83 µM in the test on HCT-15 colon; 19.5 µM with HOP-62 NSCLC; 14.2 µM with MDA-MB-231 breast; 8.86 µM in the test with OVCAR-3 ovarian; 17 µM with OVCAR-5 ovarian; 1.14 µM in the test with RXF 393 renal. The GI50 in the test on SK-MEL-5 melanoma was 3.93 µM; in the test on U251 CNS, 2.13 µM; in the test with UACC-257 melanoma, 12.6 µM. Further, the TGI stood at 4.36 µM with HCT-15 colon; 47.3 µM with HOP-62 NSCLC; 64.3 µM in the test on MDA-MB-231 breast; 21.2 µM in the test on OVCAR-3 ovarian; 34.2 µM in the test on OVCAR-5 ovarian; 7.1 µM in the test on RXF 393 renal. Further, the values for the TGI in the test with SK-MEL-5 melanoma, in the test on U251 CNS and with UACC-257 melanoma were 18.5 µM, 4.59 µM and 33.4 µM, respectively.

As to `CC(O)(CNS(=O)(=O)c1ccccc1)c1ccccc1` (stereo not drawn), the TGI in the test on HCT-15 colon, in the test on HOP-62 NSCLC, with K-562 leukemia, with MDA-MB-231 breast, with OVCAR-3 ovarian and in the test with OVCAR-5 ovarian was over 100 µM each time. The TGI with RXF 393 renal, in the test on SK-MEL-5 melanoma and with U251 CNS was over 100 µM throughout.

Turning to `CC(=O)/C=C/C1=C(c2cccs2)c2ccccc2CC1`, the GI50 in the test with HCT-15 colon was 21.8 µM; with HOP-62 NSCLC, 33.8 µM; in the test on K-562 leukemia, 32.5 µM; in the test with MDA-MB-231 breast, 23.3 µM; with OVCAR-3 ovarian it was 29.7 µM; in the test on OVCAR-5 ovarian it was 60.7 µM. For the same molecule, the GI50 is 31.8 µM in the test with RXF 393 renal, 22.8 µM in the test with U251 CNS and 19.7 µM in the test on UACC-257 melanoma. Also, the TGI in the test with HCT-15 colon is 52.7 µM; in the test with HOP-62 NSCLC, 88 µM; in the test on K-562 leukemia it was over 100 µM; in the test with MDA-MB-231 breast, 59.1 µM; in the test on OVCAR-3 ovarian, 63.6 µM; in the test with OVCAR-5 ovarian, over 100 µM. The TGI was 78.9 µM in the test with RXF 393 renal, 51.1 µM in the test with U251 CNS and 41.7 µM in the test with UACC-257 melanoma.
